The numbers were not newly measured in patent US6943160B2, “Morpholine derivatives as antagonists of orexin receptors” (SmithKline Beecham plc, priority 2000, dated 2005), which cites them from elsewhere.

Data set [1] relates to freely-feeding rats. The following applies: central administration, 4 hour time period.
The subject of data set [2] is orexin receptors. The following applies: central administration at onset of normal sleep period, rat.

Consider “orexin-A: ligand (agonist) of the orexin receptors; human orexin-A has sequence SEQ ID NO: 1, pyroEPLPDCCRQKTCSCRLYELLHGAGNHAAGILTL-NH2”, for which, in data set [1], the “increase in food intake over control rats receiving vehicle” value was “approximately four-fold”. In addition, the effect on arousal result in data set [2] is recorded as “dose-related increase in arousal”.
